Reference: patent publication US8470813B2, “Thiazoline and oxazoline derivatives and their methods of use” (AbbVie Inc., priority 2006, dated 2013)
Each block holds one molecule with its values, some of them ahead of it.

Experiments:
[1] = target: T1, α7 nAChRs (Rattus norvegicus, UniProt Q05941); experiment: High-throughput phospho-ERK assay (in-cell western) using PC-12 cells expressing endogenous α7 nAChRs; format: cell-based; details: in presence of selective α7 agonist, FIG. 4
T1 construct: cells expressing endogenous α7 nAChRs without the need for overexpressing recombinant receptors; host or cells: PC-12 rat pheochromocytoma cells
Protocol: To determine the effectiveness of compounds of formula (I) or (II), as allosteric modulators, the compounds of the invention were evaluated according to two high-throughput functional assays using (i) IMR-32 cells endogenous expressing α7 nAChRs and measuring Ca^2+ flux or membrane potential changes utilizing the fluorescence-imaging plate reader (FLIPR)-based assays and (ii) measurement of phospho-ERK activity using western blot assays. These assays allow for higher throughput screening of positive allosteric modulators using cells or cell lines expressing endogenous α7 nAChRs.
(ii) High-Throughput Phospho-Erk Assays Using Cells Expressing Endogenous α7 nAChRs
Rat pheochromocytoma (PC-12) cells (ATCC, Manassas, Va.) were cultured and maintained in F-12K media supplemented with 15% horse serum, 2.5% fetal calf serum, and 2 mM L-Glutamine in poly-D lysine coated dishes at 37° C. and 5% CO2. […]
PC-12 cells are treated for 10 minutes at 37° C. with test positive allosteric modulator compounds and then challenged with a selective α7 agonist for 5 minutes at 37° C. in a final volume of 100 μl/well, unless otherwise indicated. […] Well intensities were quantitated and phospho-ERK signals were normalized to total ERK signals by the Odyssey software. […]

[2] = target: T2, α7 nAChRs (Homo sapiens, UniProt P36544); experiment: High-throughput calcium flux (FLIPR) assay using IMR-32 cells expressing endogenous α7 nAChRs; format: cell-based
T2 construct: IMR-32 cells endogenous expressing α7 nAChRs; host or cells: IMR-32 neuroblastoma cells
T2 sequence (P36544 23-502): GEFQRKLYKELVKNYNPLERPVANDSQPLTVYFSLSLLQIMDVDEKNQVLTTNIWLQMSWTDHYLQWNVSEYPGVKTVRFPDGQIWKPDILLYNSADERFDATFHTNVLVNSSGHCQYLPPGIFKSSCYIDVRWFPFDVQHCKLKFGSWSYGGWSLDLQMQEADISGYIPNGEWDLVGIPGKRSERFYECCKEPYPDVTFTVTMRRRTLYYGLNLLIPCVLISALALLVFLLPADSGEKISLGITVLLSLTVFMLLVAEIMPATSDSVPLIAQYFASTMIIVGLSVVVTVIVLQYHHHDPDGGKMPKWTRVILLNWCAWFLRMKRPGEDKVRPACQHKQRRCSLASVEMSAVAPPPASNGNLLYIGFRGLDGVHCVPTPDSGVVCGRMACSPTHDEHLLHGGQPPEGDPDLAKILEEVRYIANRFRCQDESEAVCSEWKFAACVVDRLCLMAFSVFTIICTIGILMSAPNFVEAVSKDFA
Excerpt: (i) High-Throughput Calcium Flux Assays Using Cells Expressing Endogenous α7 nAChRs
As such, positive allosteric modulators can be identified or nicotinic acetylcholine receptor agonists can be identified by using IMR-32 cells that endogenously express various nicotinic receptors including α7 nAChRs. […] Accordingly, allosteric modulator compounds described herein can be identified using fluorescence-based throughput functional assay using cell lines such as IMR-32 neuroblastoma or primary dissociated neurons. Although cell types such as IMR-32 neuroblastoma and neurons are known to contain several nicotinic receptor subunits, α7 selective agonists in the present assay selectively stimulate calcium responses only in the presence of positive allosteric modulators. Any suitable selective α7 agonist can be used.
IMR-32 neuroblastoma cells (ATCC) were grown to confluency in 162 cm^2 tissue culture flasks in minimum essential media supplemented with 10% FBS and 1 mM sodium pyruvate, 0.1 mM non-essential amino acids and 1% antibiotic-antimycotic. The cells were then dissociated using cell dissociation buffer and 40 μl of 3.5×10^5 cells/ml cell suspension was plated (15,000 cells/well) into black plates with clear bottom and maintained for 48 hours in a tissue culture incubator at 37° C. under an atmosphere of 5% CO2: 95% air. […] Calcium flux was measured using calcium-3 assay kit (Molecular Devices, Sunnyvale, Calif.) or fluo-4. A stock solution of the dye was prepared by dissolving each vial supplied by the vendor in Hank's balanced salt solution buffer (HBSS) containing 20 mM HEPES. The stock solution was diluted 1:20 using the same buffer before use. The growth media was removed from the cells and loaded with 45 μl of the dye and incubated at room temperature for three hours. Fluorescence measurements were read simultaneously from all the wells by a Fluorometic Imaging Plate Reader (FLIPR) at an excitation wavelength of 480 nm and an emission wavelength of 520 nm. Baseline fluorescence was measured for the first 10 seconds at which 5× concentrations of modulator/test compounds were added to the cell plate and incubated for three minutes. The fluorescence intensity was captured every second for the first 1 minute followed by every 5 seconds for an additional 2 minutes. This procedure was followed by 20 μl of 4× concentration of agonist and readings were taken for a period of three minutes as described above.

T1 sequence (Q05941 23-502): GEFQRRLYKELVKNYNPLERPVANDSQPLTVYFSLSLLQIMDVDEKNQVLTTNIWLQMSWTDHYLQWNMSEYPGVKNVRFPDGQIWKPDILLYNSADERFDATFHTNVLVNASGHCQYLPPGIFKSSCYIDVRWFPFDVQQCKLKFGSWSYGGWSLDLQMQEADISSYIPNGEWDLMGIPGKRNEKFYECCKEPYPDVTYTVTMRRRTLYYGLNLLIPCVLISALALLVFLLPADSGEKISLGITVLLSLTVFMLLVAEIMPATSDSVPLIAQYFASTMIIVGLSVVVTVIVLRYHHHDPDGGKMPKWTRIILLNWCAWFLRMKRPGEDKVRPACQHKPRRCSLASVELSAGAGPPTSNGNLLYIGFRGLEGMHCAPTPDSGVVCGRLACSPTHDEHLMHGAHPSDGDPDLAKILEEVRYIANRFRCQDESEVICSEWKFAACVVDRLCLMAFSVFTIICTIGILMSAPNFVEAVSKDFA

- calcium fluorescence response, modulator co-applied with agonist ([2]; IMR-32 cells, Example 9 10 μM with agonist 4-(5-phenyl-[1,3,4]oxadiazol-2-yl)-1,4-diaza-bicyclo[3.2.2]nonane, FIG. 1): evoked calcium fluorescence response
- calcium response, modulator alone ([2]; IMR-32 cells, absence of α7 nAChR agonist, FIG. 2): did not trigger calcium responses
- EC50 ([2]; IMR-32 neuroblastoma cells, in presence of agonist 4-(5-phenyl-[1,3,4]oxadiazol-2-yl)-1,4-diaza-bicyclo[3.2.2]nonane, FIG. 2, read-out: EC50 value of the modulator (calcium fluorescence response)): 3 µM
SMILES: Cc1cn(-c2ccc3c(c2)OC(F)(F)O3)/c(=N/C(=O)N(C)C)s1 [Example 9, N′-[(2Z)-3-(2,2-difluoro-1,3-benzodioxol-5-yl)-5-methyl-1,3-thiazol-2(3H)-ylidene]-N,N-dimethylurea]
- ERK phosphorylation, concentration-response [1]: evoke concentration-dependent increases in ERK phosphorylation

SMILES: c1ccc(-c2nnc(N3CCN4CCC3CC4)o2)cc1 [4-(5-Phenyl-[1,3,4]oxadiazol-2-yl)-1,4-diaza-bicyclo[3.2.2]nonane, reference compound]
- calcium response, agonist alone ([2]; IMR-32 cells, absence of allosteric modulator, FIG. 3): did not trigger calcium responses

SMILES: CCN1C[C@]2(COC(=O)c3ccccc3N3C(=O)C[C@H](C)C3=O)CC[C@H](OC)[C@@]34[C@@H]5C[C@H]6[C@H](OC)[C@@H]5[C@](O)(C[C@@H]6OC)[C@@](O)([C@@H](OC)[C@H]23)[C@@H]14 [methyllycaconitine, reference compound]
- effect of α7 selective antagonist on agonist plus modulator calcium response ([2]; IMR-32 cells): abolishes response
